Measurements published in patent US9695192B2, “Fused heterocyclic compounds as ion channel modulators” (GILEAD SCIENCES, INC., priority 2011, dated 2017).

Target: wild-type human cardiac sodium channel, hNav1.5 (Homo sapiens, UniProt Q14524)
Assay: Late INa screening assay (QPatch whole cell patch clamp, tefluthrin-enhanced late sodium current)
Assay type: cell-based
Settings: HEK293 hNav1.5, late INa activated with 10 μM Tefluthrin
Experimental: The late sodium current (Late INa) and peak sodium current (Peak INa) assays are performed on an automated electrophysiology platform, QPatch 16X (Sophion Bioscience, Copenhagen, Denmark), which uses the whole cell patch clamp technique to measure currents through the cell membrane of up to 16 cells at a time. The assay uses an HEK293 (human embryonic kidney) cell line heterologously expressing the wild-type human cardiac sodium channel, hNav1.5, purchased from Millipore (Billerica, Mass.). No beta subunits were coexpressed with the Na channel alpha subunit. Cells are maintained with standard tissue culture procedures and stable channel expression is maintained with 400 μg/mL Geneticin in the culture medium. Cells isolated for use on QPatch are incubated for 5 minutes in Detachin 1X (Genlantis, San Diego, USA) at 37° C. to ensure that 80-90% of the cells are single and not part of a cell cluster. Experiments are carried out at 23-25° C.
For both the Late INa and Peak INa assays, series resistance compensation is set to 100% and series resistance and whole-cell compensation are performed automatically. Currents are digitized at 25 kHz and low-pass filtered at 12 kHz and 10 kHz for the late and peak INa assays, respectively. Currents through open sodium channels are automatically recorded and stored in the Sophion Bioscience Oracle database (Sophion Bioscience, Copenhagen, Denmark). Analysis is performed using QPatch Assay and database software and data are compiled in Excel.
Compound stocks are routinely made by the Gilead Sample Bank in plastic vials to 10 mM in dimethyl sulfoxide (DMSO). In some cases, when compounds are not soluble in DMSO, they are made in 100% ethanol. Stocks are sonicated as necessary. The extracellular solution for screening Late INa is composed of: 140 mM NaCl, 4 mM KCl, 1.8 mM CaCl2, 0.75 mM MgCl2 and 5 mM HEPES with pH adjusted to 7.4 using NaOH. The intracellular solution used to perfuse the inside of the cells for both the Late INa and Peak INa assays contains: 120 mM CsF, 20 mM CsCl, 5 mM EGTA, 5 mM HEPES and pH adjusted to 7.4 with CsOH. Compounds are diluted in extracellular solution to 1 μM in glass vials and then transferred to glass well plates before robotic addition to the cells. A 0 mM Na extracellular solution (0 Na-ECF) is used at the end of each experiment for the Late INa and Peak INa assays to measure baseline current contains: 140 mM N-methyl-D-glucamine; 4 mM KCl; 1.8 mM CaCl2; 0.75 mM MgCl2; 5 mM HEPES and pH was adjusted to 7.4 with HCl.
For the hNav1.5 Late INa assay, sodium channels are activated every 10 seconds (0.1 Hz) by depolarizing the cell membrane to −20 mV for 250 milliseconds (ms) from a holding potential of −120 mV. In response to a −20 mV voltage step, typical hNav1.5 sodium currents activate rapidly to a peak negative current and then inactivate nearly completely within 3-4 ms.
Compounds were tested to determine their activity in blocking the late sodium current. Late INa was generated by adding 10 μM Tefluthrin (pyrethroid) to the extracellular solution while recording Na currents. To confirm the block of late INa observed using the automated screening method, a second late INa enhancer (ATX-II) and the manual patch clamp method were used. ATX-II and tefluthrin occupy distinct, non-overlapping binding sites and modify Na^+ channel function differently to increase late INa. Compounds tested have been found generally to inhibit the enhanced late INa caused by either late INa enhancer. For the purposes of the screening, late INa is defined as the mean current between 225 ms and 250 ms after stepping to −20 mV to activate Na channels. After establishing the whole cell recording configuration, late INa activator is added to each well 4 times over a 16-17 minute period so that the late component of the Na current reaches a stable value. Compounds were then added (typically at 1 μM), in the presence of the late INa activator, with 3 additions over the course of 7 or 8 minutes. […]

Chain of wild-type human cardiac sodium channel, hNav1.5 (Q14524 whole entry): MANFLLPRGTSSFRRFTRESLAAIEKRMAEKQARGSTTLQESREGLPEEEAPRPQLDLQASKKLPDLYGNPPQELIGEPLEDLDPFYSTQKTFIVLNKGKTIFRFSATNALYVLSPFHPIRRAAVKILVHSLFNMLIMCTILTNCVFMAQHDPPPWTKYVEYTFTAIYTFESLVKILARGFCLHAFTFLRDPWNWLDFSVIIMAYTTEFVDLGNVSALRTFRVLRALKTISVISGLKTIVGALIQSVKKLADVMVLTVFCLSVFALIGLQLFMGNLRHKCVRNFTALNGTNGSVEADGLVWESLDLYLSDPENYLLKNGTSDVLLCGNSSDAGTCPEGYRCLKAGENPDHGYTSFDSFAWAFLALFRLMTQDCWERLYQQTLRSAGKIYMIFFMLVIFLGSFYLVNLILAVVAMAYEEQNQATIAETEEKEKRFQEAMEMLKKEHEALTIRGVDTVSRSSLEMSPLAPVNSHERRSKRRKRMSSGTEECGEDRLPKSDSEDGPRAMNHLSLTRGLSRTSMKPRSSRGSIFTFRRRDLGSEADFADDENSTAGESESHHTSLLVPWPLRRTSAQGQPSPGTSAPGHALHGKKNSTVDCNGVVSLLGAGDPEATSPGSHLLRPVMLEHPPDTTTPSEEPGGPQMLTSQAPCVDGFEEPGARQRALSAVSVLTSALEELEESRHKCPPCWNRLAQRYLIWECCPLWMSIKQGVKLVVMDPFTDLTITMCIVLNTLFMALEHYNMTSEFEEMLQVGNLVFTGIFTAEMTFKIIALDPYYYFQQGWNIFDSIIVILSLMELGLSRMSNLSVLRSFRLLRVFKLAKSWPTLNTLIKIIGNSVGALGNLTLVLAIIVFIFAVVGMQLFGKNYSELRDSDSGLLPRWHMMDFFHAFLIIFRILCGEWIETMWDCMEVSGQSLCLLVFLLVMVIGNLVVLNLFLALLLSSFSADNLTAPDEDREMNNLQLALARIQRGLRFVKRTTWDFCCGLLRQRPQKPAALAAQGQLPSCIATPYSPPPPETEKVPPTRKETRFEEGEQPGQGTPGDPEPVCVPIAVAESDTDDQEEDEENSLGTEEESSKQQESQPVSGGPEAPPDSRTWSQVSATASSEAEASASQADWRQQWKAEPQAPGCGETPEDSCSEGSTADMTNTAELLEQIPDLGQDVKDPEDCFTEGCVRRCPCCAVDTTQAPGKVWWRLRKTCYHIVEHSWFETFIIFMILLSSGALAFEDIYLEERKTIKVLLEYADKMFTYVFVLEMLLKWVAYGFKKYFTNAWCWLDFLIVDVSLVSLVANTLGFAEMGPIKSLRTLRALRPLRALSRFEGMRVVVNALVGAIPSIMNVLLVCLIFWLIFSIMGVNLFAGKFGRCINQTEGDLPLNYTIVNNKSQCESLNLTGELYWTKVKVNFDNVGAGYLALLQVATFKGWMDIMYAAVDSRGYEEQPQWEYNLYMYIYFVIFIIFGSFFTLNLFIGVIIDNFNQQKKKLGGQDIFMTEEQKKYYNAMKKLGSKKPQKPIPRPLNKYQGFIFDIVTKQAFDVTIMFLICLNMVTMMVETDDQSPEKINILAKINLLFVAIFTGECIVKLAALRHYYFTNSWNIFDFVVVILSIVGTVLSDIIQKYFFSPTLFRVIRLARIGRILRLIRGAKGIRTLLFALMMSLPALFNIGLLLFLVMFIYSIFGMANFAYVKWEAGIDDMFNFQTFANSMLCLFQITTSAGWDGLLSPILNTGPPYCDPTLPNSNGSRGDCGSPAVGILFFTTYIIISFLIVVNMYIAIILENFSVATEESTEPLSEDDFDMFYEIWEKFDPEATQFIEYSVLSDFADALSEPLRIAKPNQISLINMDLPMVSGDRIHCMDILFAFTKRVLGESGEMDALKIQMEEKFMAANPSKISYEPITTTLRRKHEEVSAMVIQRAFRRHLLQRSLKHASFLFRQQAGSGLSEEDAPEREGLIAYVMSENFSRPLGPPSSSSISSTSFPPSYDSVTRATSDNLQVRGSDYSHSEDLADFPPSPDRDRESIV

SMILES	inhibition at 1 µM
FC(F)(F)c1ccc(-c2ccc3c(c2)C(Nc2ccccn2)=NCCO3)cc1 [II-19, N-(pyridin-2-yl)-7-(4-(trifluoromethyl)phenyl)-2,3-dihydrobenzo[f][1,4]oxazepin-5-amine]	43%
FC1(F)CCN(C2=NCCOc3ccc(-c4ccc(C(F)(F)F)cc4)cc32)CC1 [II-21, 5-(4,4-difluoropiperidin-1-yl)-7-(4-(trifluoromethyl)phenyl)-2,3-dihydrobenzo[f][1,4]oxazepine]	13%
OC1CCN(C2=NCCOc3ccc(-c4ccc(C(F)(F)F)cc4)cc32)C1 (centres unmarked) [II-23, 1-(7-(4-(trifluoromethyl)phenyl)-2,3-dihydrobenzo[f][1,4]oxazepin-5-yl)pyrrolidin-3-ol]	9%
FC(F)(F)c1ccc(-c2ccc3c(c2)C(NCCOc2ccccc2Cl)=NCCO3)cc1 [II-24, N-(2-(2-chlorophenoxy)ethyl)-7-(4-(trifluoromethyl)phenyl)-2,3-dihydrobenzo[f][1,4]oxazepin-5-amine]	26%
FC(F)(F)c1ccc(-c2ccc3c(c2)C(NCc2cccc(C(F)(F)F)n2)=NCCO3)cc1 [II-25, 7-(4-(trifluoromethyl)phenyl)-N-((6-(trifluoromethyl)pyridin-2-yl)methyl)-2,3-dihydrobenzo[f][1,4]oxazepin-5-amine]	20%
FC(F)(F)c1ccc(-c2ccc3c(c2)C(Nc2nnn[nH]2)=NCCO3)cc1 [II-26, N-(1H-tetrazol-5-yl)-7-(4-(trifluoromethyl)phenyl)-2,3-dihydrobenzo[f][1,4]oxazepin-5-amine]	14%
FC(F)(F)c1ccc(-c2ccc3c(c2)C(Nc2cccc(C(F)(F)F)n2)=NCCO3)cc1 [II-27, 7-(4-(trifluoromethyl)phenyl)-N-(6-(trifluoromethyl)pyridin-2-yl)-2,3-dihydrobenzo[f][1,4]oxazepin-5-amine]	1%
FC(F)(F)CNC1=NCCOc2ccc(-c3ccc(C(F)(F)F)cc3)cc21 [II-29, N-(2,2,2-trifluoroethyl)-7-(4-(trifluoromethyl)phenyl)-2,3-dihydrobenzo[f][1,4]oxazepin-5-amine]	7%
O=C1CCCN1C1=NCCOc2ccc(-c3ccc(C(F)(F)F)cc3)cc21 [II-30, 1-(7-(4-(trifluoromethyl)phenyl)-2,3-dihydrobenzo[f][1,4]oxazepin-5-yl)pyrrolidin-2-one]	10%
FC(F)(F)c1ccc(-c2ccc3c(c2)C(N2CCN(C4CC4)CC2)=NCCO3)cc1 [II-31, 5-(4-cyclopropylpiperazin-1-yl)-7-(4-(trifluoromethyl)phenyl)-2,3-dihydrobenzo[f][1,4]oxazepine]	24%
FC(F)(F)c1ccc(-c2ccc3c(c2)C(Nc2ccccc2)=NCCO3)cc1 [II-32, N-phenyl-7-(4-(trifluoromethyl)phenyl)-2,3-dihydrobenzo[f][1,4]oxazepin-5-amine]	26%
Cn1c(CNC2=NCCOc3ccc(-c4ccc(C(F)(F)F)cc4)cc32)nc2ccccc21 [II-33, N-((1-methyl-1H-benzo[d]imidazol-2-yl)methyl)-7-(4-(trifluoromethyl)phenyl)-2,3-dihydrobenzo[f][1,4]oxazepin-5-amine]	34%
FC(F)(F)c1ccc(-c2ccc3c(c2)C(NC2CCN(Cc4ncccn4)C2)=NCCO3)cc1 (centres unmarked) [II-34, N-(1-(pyrimidin-2-ylmethyl)pyrrolidin-3-yl)-7-(4-(trifluoromethyl)phenyl)-2,3-dihydrobenzo[f][1,4]oxazepin-5-amine]	3%
O=C(c1ncccn1)N1CCC(NC2=NCCOc3ccc(-c4ccc(C(F)(F)F)cc4)cc32)C1 (centres unmarked) [II-35, pyrimidin-2-yl(3-(7-(4-(trifluoromethyl)phenyl)-2,3-dihydrobenzo[f][1,4]oxazepin-5-ylamino)pyrrolidin-1-yl)methanone]	4%
FC(F)(F)c1ccc(-c2ccc3c(c2)C(N2CCC(N4CCCC4)C2)=NCCO3)cc1 (centres unmarked) [II-36, 5-(1,3′-bipyrrolidin-1′-yl)-7-(4-(trifluoromethyl)phenyl)-2,3-dihydrobenzo[f][1,4]oxazepine]	7%
FC(F)(F)c1ccc(-c2ccc3c(c2)C(N2CCC(NCc4ncccn4)C2)=NCCO3)cc1 (centres unmarked) [II-37, N-(pyrimidin-2-ylmethyl)-1-(7-(4-(trifluoromethyl)phenyl)-2,3-dihydrobenzo[f][1,4]oxazepin-5-yl)pyrrolidin-3-amine]	20%
CN(C(=O)OC(C)(C)C)[C@@H]1CCN(C2=NCCOc3ccc(-c4ccc(C(F)(F)F)cc4)cc32)C1 [II-38, (R)-tert-butyl methyl(1-(7-(4-(trifluoromethyl)phenyl)-2,3-dihydrobenzo[f][1,4]oxazepin-5-yl)pyrrolidin-3-yl)carbamate]	18%
CN[C@@H]1CCN(C2=NCCOc3ccc(-c4ccc(C(F)(F)F)cc4)cc32)C1 [II-39, (R)—N-methyl-1-(7-(4-(trifluoromethyl)phenyl)-2,3-dihydrobenzo[f][1,4]oxazepin-5-yl)pyrrolidin-3-amine]	26%
CN(C(=O)OC(C)(C)C)[C@H]1CCN(C2=NCCOc3ccc(-c4ccc(C(F)(F)F)cc4)cc32)C1 [II-40, (S)-tert-butyl methyl(1-(7-(4-(trifluoromethyl)phenyl)-2,3-dihydrobenzo[f][1,4]oxazepin-5-yl)pyrrolidin-3-yl)carbamate]	18%
N[C@@H]1CCN(C2=NCCOc3ccc(-c4ccc(C(F)(F)F)cc4)cc32)C1 [II-41, (R)-1-(7-(4-(trifluoromethyl)phenyl)-2,3-dihydrobenzo[f][1,4]oxazepin-5-yl)pyrrolidin-3-amine]	6%
O=C1CCCN1C1CCN(C2=NCCOc3ccc(-c4ccc(C(F)(F)F)cc4)cc32)CC1 [II-42, 1-(1-(7-(4-(trifluoromethyl)phenyl)-2,3-dihydrobenzo[f][1,4]oxazepin-5-yl)piperidin-4-yl)pyrrolidin-2-one]	9%
CN[C@H]1CCN(C2=NCCOc3ccc(-c4ccc(C(F)(F)F)cc4)cc32)C1 [II-44, (S)—N-methyl-1-(7-(4-(trifluoromethyl)phenyl)-2,3-dihydrobenzo[f][1,4]oxazepin-5-yl)pyrrolidin-3-amine]	9%
O=C(N[C@H]1CCN(C2=NCCOc3ccc(-c4ccc(C(F)(F)F)cc4)cc32)C1)c1ncccn1 [II-45, (S)—N-(1-(7-(4-(trifluoromethyl)phenyl)-2,3-dihydrobenzo[f][1,4]oxazepin-5-yl)pyrrolidin-3-yl)pyrimidine-2-carboxamide]	6%
O=C(N[C@@H]1CCN(C2=NCCOc3ccc(-c4ccc(C(F)(F)F)cc4)cc32)C1)c1ncccn1 [II-46, (R)—N-(1-(7-(4-(trifluoromethyl)phenyl)-2,3-dihydrobenzo[f][1,4]oxazepin-5-yl)pyrrolidin-3-yl)pyrimidine-2-carboxamide]	4%
O=C(N[C@@H]1CCN(C2=NCCOc3ccc(-c4ccc(C(F)(F)F)cc4)cc32)C1)c1ccccn1 [II-47, (R)—N-(1-(7-(4-(trifluoromethyl)phenyl)-2,3-dihydrobenzo[f][1,4]oxazepin-5-yl)pyrrolidin-3-yl)picolinamide]	18%
CCN(CC)[C@H]1CCN(C2=NCCOc3ccc(-c4ccc(C(F)(F)F)cc4)cc32)C1 [II-48, (S)—N,N-diethyl-1-(7-(4-(trifluoromethyl)phenyl)-2,3-dihydrobenzo[f][1,4]oxazepin-5-yl)pyrrolidin-3-amine]	24%
